From patent publication US20040043959A1, “Combination therapies for treating methylthioadenosine phosphorylase deficient cells” (priority 2002, published 2004)

Biological target: T1, Human MTAP (Homo sapiens, UniProt Q13126)
T1 construct: six-histidine tag (His6) (N); made in house; host or cells: E. coli BL21 DE3
T1 sequence (Q13126 1-283): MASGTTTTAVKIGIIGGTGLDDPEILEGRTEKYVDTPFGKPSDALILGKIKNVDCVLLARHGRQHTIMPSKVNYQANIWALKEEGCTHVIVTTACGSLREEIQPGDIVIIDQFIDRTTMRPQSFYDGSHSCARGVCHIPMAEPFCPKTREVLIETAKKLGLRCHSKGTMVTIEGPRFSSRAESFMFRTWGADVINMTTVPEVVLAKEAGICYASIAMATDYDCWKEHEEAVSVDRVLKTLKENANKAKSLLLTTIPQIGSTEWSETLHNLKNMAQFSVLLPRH
Assay: MTAP substrate assay, coupled spectrophotometric (adenine, xanthine oxidase)
Assay type: biochemical
Details: 2 nM MTAP; for activity at 50 µM: 10 min, compound 50 uM, relative to MTA at 50 uM, read-out: MT-A—50: initial velocity as a percentage of the initial velocity with MTA as substrate; for MT-A—10: initial velocity as a percentage of the initial velocity with MTA as substrate: compound 10 uM, relative to MTA at 10 uM
Outline: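 Detection was xanthine oxidase-coupled (0.8 units/ml), reading adenine-derived absorbance at 305 nm over 10 min in potassium phosphate/DTT buffer at 37° C, with N-His6 enzyme purified from E. coli.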

| activity at 50 µM [%] | MT-A—10: initial velocity as a percentage of the initial velocity with MTA as substrate [%] | SMILES |
| --- | --- | --- |
| 7 | 3 | Nc1ncnc2c1ncn2[C@@H]1O[C@H](CSc2ccccc2OC(F)(F)F)[C@@H](O)[C@H]1O [2(G)(116), (2R, 3R, 4S, 5S)-2-(6-amino-9H-purin-9-yl)-5-({[2-(trifluoromethoxy)-phenyl]thio}methyl)tetra-hydrofuran-3,4-diol] |
| 28 | 25 | Nc1ncnc2c1ncn2[C@@H]1O[C@H](CSc2ccccc2F)[C@@H](O)[C@H]1O [2(G)(117), (2R, 3R, 4S, 5S)-2-(6-amino-9H-purin-9-yl)-5-{[(2-fluorophenyl)thio)-methyl}tetrahydrofuran-3,4-diol] |
| 2.5 | 2.5 | COc1ccc2[nH]c(SC[C@H]3O[C@@H](n4cnc5c(N)ncnc54)[C@H](O)[C@@H]3O)nc2c1 [2(G)(118), (2R, 3R, 4S, 5S)-2-(6-amino-9H-purin-9-yl)-5-{[(5-methoxy-1H-benzimidazol-2-yl)thio]methyl}tetrahydrofuran-3,4-diol] |
| 26 | 12 | Nc1ncnc2c1ncn2[C@@H]1O[C@H](CSc2nc3ccccc3[nH]2)[C@@H](O)[C@H]1O [2(G)(119), (2R, 3R, 4S, 5S)-2-(6-amino-9H-purin-9-yl)-5-[(1H-benzimidazol-2-ylthio)methyl)tetrahydro-furan-3,4-diol] |
| 3 | 1 | Cn1ccnc1SC[C@H]1O[C@@H](n2cnc3c(N)ncnc32)[C@H](O)[C@@H]1O [2(G)(120), (2R, 3R, 4S, 5S)-2-(6-amino-9H-purin-9-yl)-5-{[(1-methyl-1H-imidazol-2-yl)thio)methyl}tetra-hydrofuran-3,4-diol] |
| 54.5 | 64.5 | CCCCCCCCCSC[C@H]1O[C@@H](n2cnc3c(N)ncnc32)[C@H](O)[C@@H]1O [2(G)(121), (2R, 3R, 4S, 5S)-2-(6-amino-9H-purin-9-yl)-5-[(nonylthio)methyl]tetra-hydrofuran-3,4-diol] |
| 37 | 30.5 | Nc1ncnc2c1ncn2[C@@H]1O[C@H](CSc2nc3ccccc3o2)[C@@H](O)[C@H]1O [2(G)(122), (2R, 3R, 4S, 5S)-2-(6-amino-9H-purin-9-yl)-5-[(1,3-benzoxazol-2-ylthio)-methyl]tetrahydrofuran-3,4-diol] |
| 22 | 23 | Nc1ncnc2c1ncn2[C@@H]1O[C@H](CSC[C@@H]2NC(=O)NC2=O)[C@@H](O)[C@H]1O [2(G)(123), (5R)-5-[({[(2S, 3S, 4R, 5R)-5-(6-amino-9H-purin-9-yl)-3,4-dihydroxytetra-hydrofuran-2-yl)methyl}thio)methyl]imidazo-lidine-2,4-dione] |
| 51 | 47 | Nc1ncnc2c1ncn2[C@@H]1O[C@H](CSCc2ccc(Cl)cc2)[C@@H](O)[C@H]1O [2(G)(124), (2R, 3R, 4S, 5S)-2-(6-amino-9H-purin-9-yl)-5-[{(4-chlorobenzyl)thio]-methyl}tetrahydrofuran-3,4-diol] |
| 62.5 | 101 | CCCCCCCSC[C@H]1O[C@@H](n2cnc3c(N)ncnc32)[C@H](O)[C@@H]1O [2(G)(125), (2R, 3R, 4S, 5S)-2-(6-amino-9H-purin-9-yl)-5-[(heptylthio)methyl]-tetrahydrofuran-3,4-diol] |
| 67.5 | 72 | CCCCCCSC[C@H]1O[C@@H](n2cnc3c(N)ncnc32)[C@H](O)[C@@H]1O [2(G)(126), (2R, 3R, 4S, 5S)-2-(6-amino-9H-purin-9-yl)-5-[(hexylthio)methyl]tetra-hydrofuran-3,4-diol] |
| 58.5 | 56 | Nc1ncnc2c1ncn2[C@@H]1O[C@H](CSCc2ccccc2F)[C@@H](O)[C@H]1O [2(G)(127), (2R, 3R, 4S, 5S)-2-(6-amino-9H-purin-9-yl)-5-{[(2-fluorobenzyl)-thio]methyl}tetrahydro-furan-3,4-diol] |
| 10.5 | 11 | Nc1ncnc2c1ncn2[C@@H]1O[C@H](CSc2ccc(Cl)c(Cl)c2)[C@@H](O)[C@H]1O [2(G)(128), (2R, 3R, 4S, 5S)-2-(6-amino-9H-purin-9-yl)-5{[(3,4-dichlorophenyl)-thio]methyl}tetrahydro-furan-3,4-diol] |
| 41.5 | 46 | CCCCCCCCCCSC[C@H]1O[C@@H](n2cnc3c(N)ncnc32)[C@H](O)[C@@H]1O [2(G)(129), (2R, 3R, 4S, 5S)-2-(6-amino-9H-purin-9-yl)-5-[(decylthio)methyl]tetra-hydrofuran-3,4-diol] |
| 4.5 | −2 | Nc1ncnc2c1ncn2[C@@H]1O[C@H](CSc2ccc(Cl)cc2Cl)[C@@H](O)[C@H]1O [2(G)(130), (2R, 3R, 4S, 5S)-2-(6-amino-9H-purin-9-yl)-5-{[(2,4-dichlorophenyl)-thio]methyl}tetrahydro-furan-3,4-diol] |
| 11 | 11.5 | Nc1ncnc2c1ncn2[C@@H]1O[C@H](CSc2cc(Cl)cc(Cl)c2)[C@@H](O)[C@H]1O [2(G)(131), (2R, 3R, 4S, 5S)-2-(6-amino-9H-purin-9-yl)-5-{[(3,5-dichlorophenyl)-thio]methyl}tetrahydro-furan-3,4-diol] |
| 1.5 | 0 | CCOC(=O)c1c[nH]c(SC[C@H]2O[C@@H](n3cnc4c(N)ncnc43)[C@H](O)[C@@H]2O)n1 [2(G)(132), Ethyl 2-({[(2S, 3S, 4R, 5R)-5-(6-amino-9H-purin-9-yl)-3,4-dihydroxytetra-hydrofuran-2-yl]methyl}thio)-1H-imidazole-4-carboxylate] |
| 31.5 | 22.5 | CCCCOC(=O)CSC[C@H]1O[C@@H](n2cnc3c(N)ncnc32)[C@H](O)[C@@H]1O [2(G)(133), Butyl ({[(2S, 3S, 4R, 5R)-5-(6-amino-9H-purin-9-yl)-3,4-dihydroxytetra-hydrofuran-2-yl]methyl}-thio)acetate] |
| 37.5 | 18 | CCCCNCCSC[C@H]1O[C@@H](n2cnc3c(N)ncnc32)[C@H](O)[C@@H]1O [2(G)(136), (2R, 3R, 4S, 5S)-2-(6-amino-9H-purin-9-yl)-5-({[2-(butylamino)-ethyl]thio}methyl)-tetrahydrofuran-3,4-diol] |
| 2 | 3.5 | Cc1cc(C)c(CSC[C@H]2O[C@@H](n3cnc4c(N)ncnc43)[C@H](O)[C@@H]2O)c(C)c1 [2(G)(137), (2R, 3R, 4S, 5S)-2-(6-amino-9H-purin-9-yl)-5-{[(mesitylmethyl)thio]-methyl}tetrahydrofuran-3,4-diol] |
| 12.5 | 9 | Nc1ncnc2c1ncn2[C@@H]1O[C@H](CSc2nc(-c3ccccc3)cs2)[C@@H](O)[C@H]1O [2(G)(138), (2R, 3R, 4S, 5S)-2-(6-amino-9H-purin-9-yl)-5-{[(4-phenyl-1,3-thiazol-2-yl)thio]methyl}-tetrahydrofuran-3,4-diol] |
| 30 | 26.5 | CCCCOC(=O)CCSC[C@H]1O[C@@H](n2cnc3c(N)ncnc32)[C@H](O)[C@@H]1O [2(G)(139), Butyl 3-({[(2S, 3S, 4R, 5R)-5-(6-amino-9H-purin-9-yl)-dihydroxytetrahydro-furan-2-yl]methyl}thio)-propanoate] |
| 7.5 | 3 | CCOC(=O)C(C)SC[C@H]1O[C@@H](n2cnc3c(N)ncnc32)[C@H](O)[C@@H]1O (stereo partly drawn) [2(G)(140), Ethyl 2-({[(2S, 3S, 4R, 5R)-5-(6-amino-9H-purin-9-yl)-3,4-dihydroxytetra-hydrofuran-2-yl]methyl}-thio)-propanoate] |
| 27 | 10 | CC(O)CSC[C@H]1O[C@@H](n2cnc3c(N)ncnc32)[C@H](O)[C@@H]1O (stereo partly drawn) [2(G)(141), (2R, 3R, 4S, 5S)-2-(6-amino-9H-purin-9-yl)-5-{[(2-hydroxypropyl)-thio]methyl}tetrahydro-furan-3,4-diol] |
| 58 | 1.5 | CCCCCCCCSC[C@H]1O[C@@H](n2cnc3c(N)ncnc32)[C@H](O)[C@@H]1O [2(G)(142), (2R, 3R, 4S, 5S)-2-(6-amino-9H-purin-9-yl)-5-[(octylthio)methyl]tetra-hydrofuran-3,4-diol] |
| 7.5 | 18 | CC(O)C(C)SC[C@H]1O[C@@H](n2cnc3c(N)ncnc32)[C@H](O)[C@@H]1O (stereo partly drawn) [2(G)(144), (2R, 3R, 4S, 5S)-2-(6-amino-9H-purin-9-yl)-5-{[(2-hydroxy-1-methyl-propyl)thio]methyl}tetra-hydrofuran-3,4-diol] |
